Results: US20080193519A1, “Galenic Applications of Self-Emulsifying Mixtures of Lipidic Excipients” (Aventis Pharma S.A., priority 2004, published 2008)
≈ marks a conversion by molar mass, not a printed value. Like-named read-outs stand apart in the source and are kept apart here. Values belong to the compound of their own block, whether it stands above or below them.

Columns and labels:
[1] = Method: 10 mg of molecule A are added per 1 ml of aqueous solution.
The suspensions are stirred at 25° C. for 24 hours and are then centrifuged. The amount of molecule A in the supernatant is determined by HPLC and the pH of the supernatant is checked.
The apparent solubility of molecule A in the various oils, surfactants, cosurfactants, DMSO and glycofurol was also determined. Small amounts of molecule A are added to 1 g of each vehicle. Dissolution is carried out by ultrasound treatment at 25° C. Dissolution is confirmed visually and by optical microscopy. The solubility is estimated to within about 1 mg.

[2] = from a suspension
[3] = Stability of molecule A in human duodenal liquid; format: in vitro ADME; settings: FIG. 5
Method: For each stability test, the necessary volume of a sample of human duodenal liquid frozen immediately after withdrawal is defrosted. Centrifuging at 1000 g for 15 min removes the substances resembling mucus. The pH of the supernatant is adjusted to 6.40 by addition of MES buffer (1250 mM in PBS-CMF), a value similar to the mean value of the pH of the fresh duodenal liquid.
Molecule A is dissolved in DMSO and either diluted directly in HESS/HEPES buffer (control) or prepared in the formulations before dilution in HBSS/HEPES in order to obtain a microemulsion. The final concentration in both cases is 10^−4M.
The formulations, preheated to 37° C., are added to the duodenal liquid, maintained at 37° C., in a 1/1 (v/v) ratio and are immediately mixed, in order for the final concentration of molecule A to be 5×10^−5M.
At T=0 (immediately after mixing) and at T=5, 10, 15, 30, 60, 90 and 120 minutes, […] samples of each preparation are withdrawn and mixed with the same volume of acetone at 4° C. to halt the enzymatic reaction. The samples were subsequently centrifuged (1000 g for 5 min) and the supernatant is tested by a validated LC/MS/MS method.

in vitro = settings: human, Caco-2, pH 7.4
Method: (§1) The Caco-2 strains used in the tests are Caco-2/TC7 clone cells.
(§2) In order to evaluate the scale of permeability of molecule A dissolved in DMSO as a function of the concentration, two solutions are prepared. The first, to which molecule A labelled with ^14C will be added, is 4.3×10^−2M; the second, to which ^14C-mannitol will be added, is 5×10^−2M.
(§3) These DMSO solutions are subsequently diluted in a 25 mM HBSS/HEPES buffer (pH 7.4) to which 0.4 μCi/ml of ^14C-mannitol or 0.4 μCi/ml of molecule A labelled with ^14C has been added (corresponding to 7 μM), so as to obtain final concentrations of molecule A of 7, 10, 50 or 100 mM.
(§4) The final concentration of DMSO in each donor solution is adjusted to 0.5%.
(§5) Donor solutions comprising 0.5% DMSO but comprising no compound are used as controls.
(§6) To analyse the role of P-glycoprotein in the mechanism of the transport of molecule A, donor solutions comprising 10 mM of molecule A and 100 mM of verapamil, nicardipine or progesterone are prepared and the permeability of molecule A is evaluated and compared with that obtained without the P-glycoprotein modulator.
(§7) To study the effects of glycofurol and of macrogol 300 on the permeability of molecule A: • Molecule A is dissolved in glycofurol in order to obtain 4.3×10^−3M or 5×10^−3M solutions. These are subsequently diluted in the HBSS/HEPES buffer to which 0.4 μCi/ml of ^14C-mannitol or 0.4 μCi/ml of molecule A labelled with ^14C has been added (see above), in order to obtain donor solutions for which the final concentration of molecule A is 50 μM and the final content of glycofurol is 1%. • Molecule A is dissolved in macrogol 300 in order to obtain 0.3×10^−3M or 10^−3M solutions.
(§8) Before any formulation, molecule A is dissolved in DMSO or glycofurol in order to obtain, in each solvent, solutions with concentrations of 4.3×10^−3M or 5×10^−3M. 40 μCi/ml of molecule A labelled with ^14C are added to the 4.3×10^−3M solutions, so that the theoretical concentration of molecule A is 5×10^−3M. 40 μCi/ml of ^14C-mannitol are added to the 5×10^−3M solutions.
(§9) Each of the solutions thus obtained is subsequently diluted in the mixtures under consideration of lipid excipients and of surfactants and, if appropriate, of cosurfactants, giving formulations comprising the solvent (DMSO or glycofurol) at 10% and molecule A at 5×10^−4M.
(§10) These formulations are diluted in 25 mM HBSS/HEPES buffer to give the donor solutions, the final concentration of molecule A of which is 5×10^−5M, which comprise 0.4 μCi/ml of molecule A labelled with 14C or else 0.4 μCi/ml of 14C-mannitol, and the proportion of lipid excipient of which is less than 1%. […]

Caco-2/TC7 clone cells [4] = system: Caco-2/TC7 clone cells
Method: as §1, §2, §3, §4, §5, §6, §7, §8, §9, §10

Caco-2/TC7 clone cells [5] = assay: Transport (apparent permeability AB/BA) through Caco-2 cell monolayers; settings: solvents used to prepare the formulations (FIG. 3)
Method: as §1, §2, §3, §4, §5, §6, §7, §8, §9, §10

Compound: CCOC(=O)[C@H](CNC(=O)c1ccc(CCC(=O)NC2=NCCCN2)cc1)NS(=O)(=O)c1cccc2ccccc12 [molecule A, ethyl ester of (2S)-2-(naphthyl-1-sulphonylamino)-3-(4-(2-(1,4,5,6-tetrahydropyrimidin-2-ylcarbamoyl)ethyl)-benzoylamino)propionic acid]
- solubility ([1]; aqueous medium at physiological pH of the intestines): 400 µg/mL (≈ 0.69 mM)
- solubility ([1]; in glycofurol): 6000 µg/mL (≈ 10.4 mM)
- solubility ([1]; in macrogol 300): 2000 µg/mL (≈ 3.45 mM)
- absolute bioavailability [2]: less than 1%
- absorption of the active principle orally [2]: less than 1%
- stability in human duodenal liquid (in words) [3]: unstable

- Papp B→A at 120 min (in vitro): 2.1 ×10⁻⁶ cm/s
- efflux by P-glycoprotein (in words) (Caco-2/TC7 clone cells [4]; Caco-2): undergoes efflux by P-glycoprotein
- increase in the transport in the AB direction by a factor, with respect to 0.5% DMSO (Caco-2/TC7 clone cells [4]; human, Caco-2, 120 min, pH 7.4): 5.9
Compound: O=C(CCCOc1ccc(C[C@H](NC(=O)OCc2ccccc2)C(=O)O)cc1)NC1=NCCCN1 [molecule B, (2S)-2-benzyloxycarbonylamino-3-(4-(3-(1,4,5,6-tetrahydropyrimidin-2-ylcarbamoyl)propyloxy)phenyl)-propionic acid]

- effect of the solvent on the Papp values of molecule A (Caco-2/TC7 clone cells [5]): no effect
Compound: glycofurol
